Measured values as given in PubChem BioAssay AID1963851 (Molecular Pharmacology Branch, DTP, NCI, 2024).
pIC50: −log10 of the molar value.

Test system: 188146-221-R-J1-PDC complex spheroid viability
Test: Anticancer human tumor 188146-221-R-J1-PDC patient-derived colon adenocarcinoma cell line growth inhibition [POLQ]
Details: for pIC50: curve of first compound; for viability, T/C: stronger effect = lower value
Experimental: Multicellular complex tumor spheroid response to Polymerase (POL) inhibitors (novobiocin, ART-558, RP6685) in combination with a variety of drugs and investigational agents in selected tumor cell lines
The POL inhibitors (novobiocin, ART-558, and RP6685) were evaluated both individually and in combination with standard of care and investigational anticancer small molecules within a complex spheroid model of solid tumors. . Complex spheroids include a stromal component modeled by human endothelial cells (HUVEC) and fibroblasts modeled by human mesenchymal stem cells (MSCs). The concentration ranges selected for each drug and investigational agent were based upon clinically achievable concentrations if the clinical Cmax of the agent was known.
Compounds. The drugs and investigational agents: novobiocin (NSC847541), ART-558 (NSC835418), RP-6685 (NSC848927), peposertib (NSC802822), ceralasertib (NSC780249), elimusertib (NSC800525), camonsertib (NSC841442), AZD-1390 (NSC803789), olaparib (NSC753686), talazoparib (NSC767125), rucaparib (NSC756644), sotorasib (NSC818433), MRTX-1133 (NSC836407), SN-38 (NSC673596), topotecan (NSC609699), epotoside (NSC141540), doxorubicin (NSC123127), gemcitabine (NSC613327), 5-fluorouracil (NSC19893), paclitaxel (NSC125973), vemurafenib (NSC761431), MSA-2 (NSC828583), SN-011 (NSC837082), adavosertib (NSC754352), prexasertib (NSC758257), carboplatin (NSC241240) and oxaliplatin (NSC266046), were obtained from the National Cancer Institute (NCI) Developmental Therapeutics Program Chemical Repository (21). The FDA-approved anticancer drug set is available from the Developmental Therapeutics Program at https://dtp.cancer.gov/organization/dscb/obtaining/. […] The stock solutions were prepared in dimethyl sulfoxide (DMSO, Sigma-Aldrich, St. Louis, MO, cat. D2650), except for the platinum compounds which were prepared in saline (Quality Biological, Gaithersburg, MD, cat. 114-055-101), at 800-fold the tested concentration and stored at -70 degrees C prior to their use. All drugs and investigational agents were tested over a range starting from a high concentration at or near the clinical Cmax and decreasing in half-log increments. If the clinical Cmax for an agent had not been determined, the highest concentration tested was 10 microM, except for SN-38, which was tested at a high concentration of 1 microM.
Cell Culture. All cells were maintained in an incubator at 37 degrees C and 5% CO2 with 95% humidity. The PDC lines were cultured according to standard operating procedures established by the NCI PDMR (https://pdmr.cancer.gov). Table 3 of the manuscript, lists the cell lines along with the number of the three cell types plated to form the mct-spheroids and media for tumor cell growth. After thawing, all PDC lines, except 997537-175-T-J1-PDC and 415267-285-R-J2-PDC, were cultured in Matrigel-coated flasks prepared with a working solution of 1X Ham's F-12 nutrient mix, without supplementation (Thermo Fisher Scientific, cat. 11765054), 100 U/mL penicillin-streptomycin (Thermo Fisher Scientific, cat. 15140122), and 2.5% Matrigel (Corning Inc., Corning, NY, cat. 354248) for the first three passages. The two PDC lines 997537-175-T-J1-PDC and 415267-285-R-J2-PDC were cultured on uncoated flasks. The 857933-349-R-J2-PDC line was cultured in 6C/Colon 1B media containing advanced DMEM/F-12 (Thermo Fisher Scientific, cat. 12634028), 10 mM HEPES (Thermo Fisher Scientific, cat. 15630080), 1X GlutaMAX supplement (Thermo Fisher Scientific, cat. 35050061), 0.1 mg/mL primocin (InvivoGen, San Diego, CA, cat. ant-pm-2), 10% defined fetal bovine serum, heat inactivated (HyClone Laboratories Inc., Logan, UT, cat. SH30070.03HI), 50% L-WRN conditioned media (ATCC, cat. CRL-3276), 1.25 mM N-Acetyl-L-cysteine (Sigma-Aldrich, cat. A9165), 10 mM nicotinamide (Sigma-Aldrich, cat. N0636), 1X B-27 supplement (Thermo Fisher Scientific, cat. 17504044), 1X N-2 supplement (Thermo Fisher Scientific, cat. […]

[1] = second compound 0.0316 µM, first compound 0.0316 µM
[2] = second compound 0.0316 µM, first compound 0.1 µM
[3] = second compound 0.1 µM, first compound 0.0316 µM
[4] = second compound 0.1 µM, first compound 0.1 µM
[5] = second compound 0.316 µM, first compound 0.0316 µM
[6] = second compound 0.316 µM, first compound 0.1 µM
[7] = second compound 1 µM, first compound 0.0316 µM
[8] = second compound 1 µM, first compound 0.1 µM
[9] = second compound 3.16 µM, first compound 0.0316 µM
[10] = second compound 3.16 µM, first compound 0.1 µM
[11] = second compound 10 µM, first compound 0.0316 µM
[12] = second compound 10 µM, first compound 0.1 µM
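Note: spheroids exposed to compounds for seven days.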
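Throughout, for viability, T/C: 100% = DMSO vehicle control viability.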

SMILES: COc1cc(C2c3cc4c(cc3C(OC3OC5COC(C)OC5C(O)C3O)C3COC(=O)C23)OCO4)cc(OC)c1O (centres undefined) + COC1C(OC(N)=O)C(O)C(Oc2ccc3c(O)c(NC(=O)c4ccc(O)c(CC=C(C)C)c4)c(=O)oc3c2C)OC1(C)C
- pIC50 (second compound 0.0316 µM): 6.04
- pIC50 (second compound 0.1 µM): 6.04
- pIC50 (second compound 0.316 µM): 6.07
- pIC50 (second compound 1 µM): 6.01
- pIC50 (second compound 3.16 µM): 6.02
- pIC50 (second compound 10 µM): 5.87
- viability, T/C [1]: 116%
- viability, T/C [2]: 103%
- viability, T/C (second compound 0.0316 µM, first compound 0.316 µM): 78.1%
- viability, T/C (second compound 0.0316 µM, first compound 1 µM): 45.9%
- viability, T/C (second compound 0.0316 µM, first compound 3.16 µM): 31.3%
- viability, T/C (second compound 0.0316 µM, first compound 10 µM): 21.4%
- viability, T/C [3]: 124%
- viability, T/C [4]: 108%
- viability, T/C (second compound 0.1 µM, first compound 0.316 µM): 79.5%
- viability, T/C (second compound 0.1 µM, first compound 1 µM): 50%
- viability, T/C (second compound 0.1 µM, first compound 3.16 µM): 24.8%
- viability, T/C (second compound 0.1 µM, first compound 10 µM): 29%
- viability, T/C [5]: 103%
- viability, T/C [6]: 111%
- viability, T/C (second compound 0.316 µM, first compound 0.316 µM): 80.4%
- viability, T/C (second compound 0.316 µM, first compound 1 µM): 46.5%
- viability, T/C (second compound 0.316 µM, first compound 3.16 µM): 24.7%
- viability, T/C (second compound 0.316 µM, first compound 10 µM): 23.4%
- viability, T/C [7]: 111%
- viability, T/C [8]: 93.8%
- viability, T/C (second compound 1 µM, first compound 0.316 µM): 77.3%
- viability, T/C (second compound 1 µM, first compound 1 µM): 52.9%
- viability, T/C (second compound 1 µM, first compound 3.16 µM): 25.3%
- viability, T/C (second compound 1 µM, first compound 10 µM): 31.6%
- viability, T/C [9]: 105%
- viability, T/C [10]: 103%
- viability, T/C (second compound 3.16 µM, first compound 0.316 µM): 81.9%
- viability, T/C (second compound 3.16 µM, first compound 1 µM): 49.7%
- viability, T/C (second compound 3.16 µM, first compound 3.16 µM): 30%
- viability, T/C (second compound 3.16 µM, first compound 10 µM): 29.2%
- viability, T/C [11]: 119%
- viability, T/C [12]: 103%
- viability, T/C (second compound 10 µM, first compound 0.316 µM): 97.3%
- viability, T/C (second compound 10 µM, first compound 1 µM): 54.1%
- viability, T/C (second compound 10 µM, first compound 3.16 µM): 34.7%
- viability, T/C (second compound 10 µM, first compound 10 µM): 27.4%

SMILES: Cn1ncnc1[C@H]1c2n[nH]c(=O)c3cc(F)cc(c23)N[C@@H]1c1ccc(F)cc1 + COC1C(OC(N)=O)C(O)C(Oc2ccc3c(O)c(NC(=O)c4ccc(O)c(CC=C(C)C)c4)c(=O)oc3c2C)OC1(C)C
- pIC50 (second compound 0.0316 µM): < 7.00
- pIC50 (second compound 0.1 µM): < 7.00
- pIC50 (second compound 0.316 µM): < 7.00
- pIC50 (second compound 1 µM): < 7.00
- pIC50 (second compound 3.16 µM): < 7.00
- pIC50 (second compound 10 µM): < 7.00
- viability, T/C (second compound 0.0316 µM, first compound 0.000316 µM): 109%
- viability, T/C (second compound 0.0316 µM, first compound 0.001 µM): 93.7%
- viability, T/C (second compound 0.0316 µM, first compound 0.00316 µM): 104%
- viability, T/C (second compound 0.0316 µM, first compound 0.01 µM): 113%
- viability, T/C [1]: 97.9%
- viability, T/C [2]: 88.4%
- viability, T/C (second compound 0.1 µM, first compound 0.000316 µM): 108%
- viability, T/C (second compound 0.1 µM, first compound 0.001 µM): 108%
- viability, T/C (second compound 0.1 µM, first compound 0.00316 µM): 108%
- viability, T/C (second compound 0.1 µM, first compound 0.01 µM): 101%
- viability, T/C [3]: 99.5%
- viability, T/C [4]: 86.8%
- viability, T/C (second compound 0.316 µM, first compound 0.000316 µM): 114%
- viability, T/C (second compound 0.316 µM, first compound 0.001 µM): 102%
- viability, T/C (second compound 0.316 µM, first compound 0.00316 µM): 98.2%
- viability, T/C (second compound 0.316 µM, first compound 0.01 µM): 93.8%
- viability, T/C [5]: 98.8%
- viability, T/C [6]: 88.8%
- viability, T/C (second compound 1 µM, first compound 0.000316 µM): 107%
- viability, T/C (second compound 1 µM, first compound 0.001 µM): 113%
- viability, T/C (second compound 1 µM, first compound 0.00316 µM): 108%
- viability, T/C (second compound 1 µM, first compound 0.01 µM): 107%
- viability, T/C [7]: 98.2%
- viability, T/C [8]: 101%
- viability, T/C (second compound 3.16 µM, first compound 0.000316 µM): 108%
- viability, T/C (second compound 3.16 µM, first compound 0.001 µM): 103%
- viability, T/C (second compound 3.16 µM, first compound 0.00316 µM): 106%
- viability, T/C (second compound 3.16 µM, first compound 0.01 µM): 97.5%
- viability, T/C [9]: 110%
- viability, T/C [10]: 102%
- viability, T/C (second compound 10 µM, first compound 0.000316 µM): 114%
- viability, T/C (second compound 10 µM, first compound 0.001 µM): 104%
- viability, T/C (second compound 10 µM, first compound 0.00316 µM): 111%
- viability, T/C (second compound 10 µM, first compound 0.01 µM): 104%
- viability, T/C [11]: 103%
- viability, T/C [12]: 105%
